Measured values: US10828309B2, “Dermocosmetic or pharmaceutical use of a composition comprising at least one inhibitor of some chemoattractant cytokines” (GREENPHARMA, priority 2014, dated 2020)
Like-named read-outs stand apart in the source and are kept apart here.

Tests used:
CCL17 = target: T1, CCL17 (Homo sapiens, UniProt Q92583); assay: Interaction affinity with CCL17 by fluorescence extinction of tryptophan residues; format: binding; details: CCL17 1.5 μm, excitation 285 nm
T1 sequence (Q92583 24-94): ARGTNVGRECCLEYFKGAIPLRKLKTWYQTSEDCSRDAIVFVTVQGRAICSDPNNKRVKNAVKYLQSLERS
Protocol: Briefly: the fluorescence measurements are carried out on a spectrofluorimeter Fluorolog 3 (JobinYvon/Spex) in a quartz cuvette. […] The measurements are carried out at 20° C. and the solutions are stirred using a magnetic stir bar. The recorded emission spectra are corrected by subtraction of the emission spectrum of the compound to be tested alone.

CCL22 = target: T2, CCL22 (Homo sapiens, UniProt O00626); assay: Inhibition of calcium response induced by CCL22 in cells expressing CCR4 (Indo-1); format: cell-based; details: molecules at 10 μm, read-out: Inhibition of calcium responses induced by CCL22 (%)
T2 sequence (O00626 25-93): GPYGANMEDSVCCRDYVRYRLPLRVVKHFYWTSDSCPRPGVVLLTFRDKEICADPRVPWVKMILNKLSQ
Protocol: In order to enable an easy recording of the responses associated to the CCR4 receptor, the cDNA which allows its expression is cloned in the plasmid pIRES (ClonTech) in fusion with the GFP protein, according to Vollmer et al. (1999), which enables to easily measure the expression of the chimeric EGFP-CCR4 receptor. HEK 293 cells (ATCC) are cultured in minimal essential medium MEM (Invitrogen) in the presence of 10% of fetal calf serum (Gibco-BRL), 100 U/mL of penicillin (Invitrogen), 100 μg/mL of streptomycin (Invitrogen) and 2 mM of L-glutamine (Invitrogen) at 37° C. in water-saturated atmosphere and containing 5% of 002. The cells are transfected according to the calcium phosphate precipitate method of Chen ant Okayama, 1986, and the cells having incorporated the expression plasmid are selected with 600 μg/mL of geneticin G-418 (PAA) for 5 weeks. The clones are selected after having been characterized by fluorescence microscopy and cytometric analysis by FACS (fluorescence assisted cell sorting).
(§1) In order to enable an easy recording of the cell responses associated to the CCR4 receptor, we modify its natural coupling to the inhibition of AMPc production to a coupling to the phospholipase C which enables calcium measurements. We produce for this purpose the chimeric protein Gqi5 by directed mutagenesis of the 5 las amino acids of Gq replaced by their homologues of Gi. The cells expressing the CCR4 receptor are transfected with the plasmid pCNA3.1 in which the cDNA encoding Gqi5 has been incorporated. The recordings of calcic responses are performed the day after de transfection.
(§2) The cells are loaded with a fluorescent calcium indicator, INDO-1, according to the protocol provided by the provider (Molecular probes), distributed in microplate wells and placed in a fluorescence reader-pipettor (FlexStation, Molecular devices).
Intracellular calcium elevation is measured by fluorescence intensity change at 401 and 475 nm (excitation 355 nm). Measure points are recorded every 5 s for 150 s for each well. The molecules are tested in the presence of 5 nM of CCL17 chemokine (commercial).
The response develops in a few seconds and fades with time for reaching the return in approximately 2 minutes for a CCL17 chemokine concentration of 5 to 10 nM in HEK 293 cells expressing CCR4. If the molecules to be tested are preincubated with chemokine [CK+N] and if the mixture is added to the cells, we observe a strong decrease in the amplitude of the response if the molecule to be tested is a neutralizing ligand of the chemokine. Conversely, when the neutralizing ligand is preincubated with the cells expressing the receptor [CKR+N] we observe a much smaller decrease of the amplitude of the response.
The analysis of the molecules selectivity is carried out by measuring the inhibition (at the concentration of 10 μm) of the response evoked by other chemokines (5 μm) on their respective receptors. Thus, in FIG. 3, the molecules have been tested on the pairs CCL2/CCR2, CCL3/CCR5, CCL17/CCR4, CCL22/CCR4, […], CXCL11/CXCR3, CXCL12/CXCR4.

CCL17 chemokine = target: T3, CCL17 chemokine (Homo sapiens, UniProt Q92583); assay: Inhibition of calcium response induced by CCL17 in HEK 293 cells expressing CCR4 (Indo-1); format: cell-based
T3 construct: purchased; host or cells: HEK 293 cells stably transfected with EGFP-CCR4, transiently transfected with Gqi5
T3 sequence (Q92583 24-94): T1 sequence (Q92583 24-94)
Protocol: HEK 293 cells (ATCC) are cultured in minimal essential medium MEM (Invitrogen) in the presence of 10% of fetal calf serum (Gibco-BRL), 100 U/mL of penicillin (Invitrogen), 100 μg/mL of streptomycin (Invitrogen) and 2 mM of L-glutamine (Invitrogen) at 37° C. in water-saturated atmosphere and containing 5% of 002. […] The clones are selected after having been characterized by fluorescence microscopy and cytometric analysis by FACS (fluorescence assisted cell sorting).
as §1, §2
Measure points are recorded every 5 s for 150 s for each well. The molecules are tested in the presence of 5 nM of CCL17 chemokine (commercial).
The molecules are tested at the concentration of 10 μm. The concentration of CCL17 is 5 nM.

COX-2 = target: T4, COX-2 (Homo sapiens, UniProt P35354); assay: COX-2 activity by PGE2 production in LPS-induced monocytes; format: cell-based; details: LPS-treated monocytes
T4 construct: endogenous in cells; host or cells: human monocytes in culture, LPS-induced
T4 sequence (P35354 18-604): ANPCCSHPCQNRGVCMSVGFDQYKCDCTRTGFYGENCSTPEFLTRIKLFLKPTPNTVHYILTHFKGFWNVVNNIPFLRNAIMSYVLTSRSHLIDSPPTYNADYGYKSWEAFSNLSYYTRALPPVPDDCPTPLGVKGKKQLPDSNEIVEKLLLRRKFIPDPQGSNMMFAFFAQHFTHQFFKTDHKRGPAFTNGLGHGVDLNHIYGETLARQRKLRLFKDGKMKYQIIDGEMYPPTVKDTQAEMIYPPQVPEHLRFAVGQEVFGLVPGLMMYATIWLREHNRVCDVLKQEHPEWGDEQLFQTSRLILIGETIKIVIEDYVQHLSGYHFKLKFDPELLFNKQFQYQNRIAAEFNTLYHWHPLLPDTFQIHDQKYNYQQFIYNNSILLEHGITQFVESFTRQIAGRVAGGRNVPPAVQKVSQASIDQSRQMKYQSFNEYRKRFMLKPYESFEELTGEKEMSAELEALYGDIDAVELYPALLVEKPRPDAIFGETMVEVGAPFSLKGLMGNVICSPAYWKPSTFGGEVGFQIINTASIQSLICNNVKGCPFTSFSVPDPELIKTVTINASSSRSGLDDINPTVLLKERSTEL
Protocol: (§3) Determination of the Activity of COX 1 and COX 2 Cyclooxygenases on Human Monocytes in Culture.
COX-2: monocytes are incubated with LPS (10 U/ml) for 24 h in order to induce COX-2 synthesis. […] The arachidonic acid is added 15 minutes after the compounds to be tested, and 15 minutes later the production of PGE2 is determined.

human monocytes = assay: Cytotoxicity on human monocytes, Alamar blue assay; format: cell-based; details: human monocytes with LPS, 5 concentrations, 24 hours
Protocol: Monocytes are inoculated in plates of 96 wells (approx. 5000 cells/well of 200 μl) for the Alamar blue assay.
After 24 hours, Alamar blue fluorescence is measured.

COX-1 = target: T5, COX-1 (Homo sapiens, UniProt P23219); assay: COX-1 activity by PGE2 production in monocytes treated with arachidonic acid; format: cell-based; details: up to 250 μM
T5 construct: endogenous in cells; host or cells: human monocytes in culture
Protocol: as §3
COX-1: the release of COX-1 mediated prostaglandin E2 (PGE2) is determined by the arachidonic acid method. […] After 15 minutes of stimulation, the activity of COX-1 is measured by determination of the production of PGE2. Aspirin (ASS) a known inhibitor of COX-1 is used as a control inhibitor.

Hacat cells [1] = assay: Human keratinocytes migration assay (in vitro wound-healing test in a cell monolayer); format: cell-based
Protocol: It is actually known that, in chronic pathologies an important cell migration may promote de formation of pruritus, one of the signs of dermatosis. The immortalized human keratinocytes obtained from the DKFZ (Heidelberg, Germany) are cultivated in Dulbecco medium modified by Eagle (DMEM, Invitrogen) supplemented with 10% of fetal calf serum (Gibco-BRL) and 100 U/ml of penicillin (Invitrogen), 100 μg/ml of streptomycin (Invitrogen) and 2 mM of L-glutamine (Invitrogen) at 37° C. and 5% of CO2. The wells of a culture plate of 24 well are inoculated with 200,000 cells and the culture is maintained until formation of a confluent cell monolayer. The cell monolayer is then damaged by performing a linear gap (scratch) using a sterile pipette head of 0.1-10 μL. […] The effect of the molecules alone is also recorded in different wells. In order to block cell proliferation, each well receives a dose of 1 μg/ml of mitomycin (Sigma-Aldrich). The culture plates are arranged in the IncuCyte apparatus (Essence Bioscience) which records the growth on the cell monolayer by transmitted imaging in cell culture conditions (37° C., 5% CO2, water-saturated atmosphere) for 72 h. Phase-contrast images are collected every 2 hours. Healing is defined (quantified) as the ratio of the width of the scar at time t and time 0. The experiment is repeated three times per condition.

Hacat cells [2] = assay: Cytotoxicity measurement, WST-1 metabolic activity test; format: cell-based, human; details: 0.3 μM, 10 μM or 30 μM, 72 hours
[3] = HEK293, molecules at 10 μm, CCL17 5 nM, HEK 293 cells expressing CCR4, read-out: Inhibition of calcium responses induced by CCL17 (%)
[4] = HEK293, read-out: Inhibition of calcium responses induced by CCL17 (%)

For COc1cc2nc(N3CCC(N4CCCCC4)CC3)nc(NC3CCCCCC3)c2cc1OC [C-021, reference compound], the “Fluorescence extinction of CCL17 (intrinsic tryptophan fluorescence)” value (CCL17) was “no signal”.
Cn1c(=O)c2c(ncn2C)n(C)c1=O [Caffeine, reference compound] showed an inhibition at 10 µM (CCL22) of 0% and an inhibition at 10 µM (CCL17 chemokine; [3]) of 0%.
Work on Cc1nc2c(=O)[nH]c(=O)[nH]c2[nH]1 [GPN062] yielded an inhibition at 10 µM (CCL22) of 0% and an inhibition at 10 µM (CCL17 chemokine; [3]) of 0%.
CC(C)=CCn1cnc2c1c(=O)n(C)c(=O)n2C [GPN279, 3,7-dihydro-1,3-dimethyl-7-(3-methyl-2-butenyl)-1H-purin-2,6-dione] was tested, and the “Effect on COX-2 activity (PGE2 production)” value (COX-2; beyond 100 μM) was “slight increase in COX-2 activity”, the “Effect on COX-2 activity (PGE2 production)” value (COX-2; up to the dose of 100 μM) was “no effect” and the “Fluorescence extinction of CCL17 (intrinsic tryptophan fluorescence)” value (CCL17) was “fluorescence extinction of CCL17 is observed”. For the same molecule, the inhibition at 10 µM (CCL22) was 0%, the “Cytotoxicity by Alamar blue” value (human monocytes) was “not cytotoxic” and the “COX-1 inhibition (PGE2 production)” value (COX-1) was “not a COX-1 inhibitor”. For the same molecule, the “Effect on cell migration accelerated by the CCL17 chemokine” value (Hacat cells [1]; Hacat monolayer, CCL17 100 ng/ml, 72 hours) was “abolished”, the “Dose-response relationship on Hacat cell monolayer healing” value (Hacat cells [1]; with CCL17, 0.3 μM, 1 μM, 10 μM) was “its effect depends on the dose” and the “Effect of the molecule alone on Hacat cell monolayer healing” value (Hacat cells [1]; without CCL17) was “does not have an effect”. The “Inhibition of calcium responses induced by CCL17 (%)” value (CCL17 chemokine; molecules at 10 μm, CCL17 5 nM, HEK 293 cells expressing CCR4) was 42 ± 4% and the “Activity of the mitochondrial enzyme (WST-1, absorbance 450 nm)” value (Hacat cells [2]) was “does not affect enzymatic activity”.
With CCCCn1cnc2c1c(=O)n(C)c(=O)n2C [GPS008658, 3,7-dihydro-7-butyl-1,3-dimethyl-1H-purine-2,6-dione] the inhibition at 10 µM (CCL22) was 32 ± 8% and the inhibition at 10 µM (CCL17 chemokine; [4]) was 40 ± 9%.
CC(C)Cn1cnc2c1c(=O)n(C)c(=O)n2C [GPS008659, 3,7-dihydro-7-isobutyl-1,3-dimethyl-1H-purine-2,6-dione] was tested, and the inhibition at 10 µM (CCL22) was 5 ± 5% and the inhibition at 10 µM (CCL17 chemokine; [4]) was 36 ± 7%.
Molecule C=CCn1cnc2c1c(=O)n(C)c(=O)n2C [GPS008660, 3,7-dihydro-7-allyl-1,3-dimethyl-1H-purine-2,6-dione] has an inhibition at 10 µM (CCL22) of 0% and an inhibition at 10 µM (CCL17 chemokine; [4]) of 19 ± 5%.
CCCCC(CC)Cn1cnc2c1c(=O)n(C)c(=O)n2C (stereo not shown) [GPS008661, 3,7-dihydro-7-(2-ethylhexyl)-1,3-dimethyl-1H-purine-2,6-dione] gave an inhibition at 10 µM (CCL22) of 0% and an inhibition at 10 µM (CCL17 chemokine; [3]) of 0%.
Work on CC(C)Cn1c(=O)n(C)c(=O)c2nc[nH]c21 [IBMX, reference compound] yielded an inhibition at 10 µM (CCL22) of 0% and an inhibition at 10 µM (CCL17 chemokine; [3]) of 0%.
Molecule Cn1c(=O)c2[nH]cnc2n(C)c1=O [Theophylline, reference compound] has an inhibition at 10 µM (CCL22) of 0% and an inhibition at 10 µM (CCL17 chemokine; [4]) of 0%.
